# Columns and labels:
# [1] = molecular target: T1, BuChE from human serum (Homo sapiens, UniProt P06276); experiment: Inhibition of human BuChE (Ellman's assay); type: biochemical; conditions: 20 min preincubation at 37 °C, pH 8.0, read-out: IC50 (hBuChE)
# T1 construct: BuChE from human serum (Sigma-Aldrich, Milan, Italy); purchased Sigma-Aldrich, Milan, Italy; host or cells: human serum
# Method: (§1) Next, the in vitro inhibition of human acetylcholinesterase (hAChE) and human butyrylcholinesterase (hBuChE) was assessed according to the method of Ellman
# (§2) The ability of QT78 to inhibit human ChE activity was assessed using Ellman’s assay. A Jasco V-530 double beam spectrophotometer connected to a HAAKE DC30 thermostating system (Thermo Haake, Vreden, Germany) was used. […] Either 50 µL of a solution of the tested compound at increasing concentrations or 50 µL of solvent (methanol or water) were added to the assay solution and preincubated at 37 °C with the enzyme for 20 min before the addition of substrate. […] In parallel, blanks containing all components except the enzyme were prepared to account for the non-enzymatic hydrolysis of the substrate. The reaction rates were compared and the percentage of inhibition due to the presence of test compound was calculated. Each concentration was analyzed in duplicate/triplicate. The percentage of inhibition of the enzyme activity due to the presence of inhibitor was calculated. Inhibition plots were obtained for each compound by plotting the percentage of inhibition versus the logarithm of inhibitor concentration in the assay solution. The linear regression parameters were determined for each curve and the IC50 extrapolated.
# [2] = molecular target: T2, human recombinant AChE (Homo sapiens, UniProt P22303); experiment: Inhibition of human AChE (Ellman's assay); type: biochemical; conditions: 20 min preincubation at 37 °C, pH 8.0, read-out: IC50 (hAChE)
# T2 construct: purchased Sigma-Aldrich, Milan, Italy
# T2 sequence (P22303 32-614): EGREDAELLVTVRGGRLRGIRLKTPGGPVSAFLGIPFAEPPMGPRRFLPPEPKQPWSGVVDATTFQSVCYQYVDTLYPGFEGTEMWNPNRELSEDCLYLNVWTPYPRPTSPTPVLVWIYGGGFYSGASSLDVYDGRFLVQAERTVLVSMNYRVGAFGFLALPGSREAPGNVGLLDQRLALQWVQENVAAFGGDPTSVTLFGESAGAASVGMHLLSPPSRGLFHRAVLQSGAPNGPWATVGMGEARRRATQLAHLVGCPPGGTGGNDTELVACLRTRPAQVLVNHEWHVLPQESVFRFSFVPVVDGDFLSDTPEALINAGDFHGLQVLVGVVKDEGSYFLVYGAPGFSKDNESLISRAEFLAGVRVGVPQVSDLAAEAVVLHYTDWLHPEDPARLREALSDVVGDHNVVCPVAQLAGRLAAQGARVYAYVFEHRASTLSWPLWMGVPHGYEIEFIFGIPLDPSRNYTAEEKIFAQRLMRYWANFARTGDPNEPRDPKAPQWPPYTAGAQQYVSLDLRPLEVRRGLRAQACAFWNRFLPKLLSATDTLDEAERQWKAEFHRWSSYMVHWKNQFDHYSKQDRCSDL
# Method: as §1, §2
# [3] = tested on: SH-SY5Y cells; experiment: Neuroprotection in SH-SY5Y cells against okadaic acid (OA) toxicity (MTT); type: cell-based, human; conditions: 1 μM compound, compared with lower concentrations
# Method: (§3) Finally, following the protocols described in the Supporting Information, we evaluated the neuroprotective profile of QT78 against two toxic insults related to neurodegeneration, using melatonin (10 nM) as a reference compound: (a) a model of reactive oxygen species (ROS) generation, based on the cocktail of the mitochondrial respiratory chain blockers rotenone and oligomycin A (R/O), and (b) hyperphosphorylation of tau protein using okadaic acid (OA), a well-known protein phosphatase inhibitor.
# (§4) Human SH-SY5Y cells were maintained in a 1:1 mixture of Nutrient Mixture F-12 and Eagle´s minimum essential medium (EMEM) supplemented with 15 nonessential amino acids, 1 mM sodium pyruvate, 10% heat-inactivated FBS, 100 units/mL penicillin, and 100 μg/mL streptomycin. Cultures were seeded into flasks containing supplemented medium and maintained at 37 °C in a humidified atmosphere of 5% CO2 and 95% air. For assays, SH-SY5Y cells were sub-cultured in 96-well plates at a seeding density of 5 × 10^4 cells per well for 2 days. […]
# (§5) MTT reduction was performed as described for both HepG2 and SH-SY5Y human cell lines. […] Colorimetric determination of MTT reduction was measured in an ELISA microplate reader at 540 nm. […]
# [4] = tested on: SH-SY5Y cells; experiment: Neuroprotection in SH-SY5Y cells against rotenone/oligomycin A (R/O) toxicity (MTT); type: cell-based, human; conditions: 1 μM compound, compared with lower concentrations
# Method: as §3, §4, §5
# [5] = in vitro; type: cell-based; conditions: human
# Method: The human hepatoma HepG2 cell line was kindly provided by the IdiPAZ Institute for Health Research (Madrid, Spain). They were cultured in Eagle´s minimum essential medium (EMEM) supplemented with 15 nonessential amino acids, 1 mM sodium pyruvate, 10 % heat-inactivated FBS, 100 units/mL penicillin, and 100 µg/mL streptomycin (reagents from Invitrogen, Madrid, Spain). […] Culture media were changed every 2 days. […] For assays, cells were subcultured in 96-well plates at a seeding density of 1 × 10^5 cells per well.
# MTT reduction was performed as described for both HepG2 and SH-SY5Y human cell lines. Briefly, 50 µL of the MTT labeling reagent, at a final concentration of 0.5 mg/mL, was added. […] Colorimetric determination of MTT reduction was measured in an ELISA microplate reader at 540 nm. Non-treated cells were considered controls and were taken as 100% viability.
# T1 sequence (P06276 29-602): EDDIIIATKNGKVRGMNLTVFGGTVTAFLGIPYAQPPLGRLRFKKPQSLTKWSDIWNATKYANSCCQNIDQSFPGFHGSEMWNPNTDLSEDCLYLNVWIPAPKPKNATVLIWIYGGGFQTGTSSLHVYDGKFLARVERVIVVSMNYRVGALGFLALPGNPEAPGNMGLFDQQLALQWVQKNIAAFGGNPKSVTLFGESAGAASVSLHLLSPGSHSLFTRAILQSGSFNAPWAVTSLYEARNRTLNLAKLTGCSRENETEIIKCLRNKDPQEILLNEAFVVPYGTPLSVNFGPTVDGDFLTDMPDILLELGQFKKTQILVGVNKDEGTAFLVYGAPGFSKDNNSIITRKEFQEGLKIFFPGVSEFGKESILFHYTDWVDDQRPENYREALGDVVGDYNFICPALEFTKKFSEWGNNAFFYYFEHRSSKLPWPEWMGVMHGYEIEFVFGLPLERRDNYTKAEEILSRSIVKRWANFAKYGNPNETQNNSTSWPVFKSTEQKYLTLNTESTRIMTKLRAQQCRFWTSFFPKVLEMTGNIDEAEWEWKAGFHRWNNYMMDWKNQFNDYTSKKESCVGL
smiles,measurement,setting,value
"Nc1c2c(nc3nc4ccccc4nc13)CCCC2 [QT78, 1,2,3,4-tetrahydroquinolino[2,3-b]quinoxalin-12-amine]",IC50,[1],6.79 ± 0.33 µM
same,IC50,[2],22 ± 1.3 µM
same,protective capacity against OA,[3],the protective capacity decreased
same,protective capacity against R/O,[4],the protective capacity decreased
same,"viability at 24 h, 1 µM",[5],96.7 ± 2.14%
same,"viability at 24 h, 3 µM",[5],97.6 ± 2.2%
same,"viability at 24 h, 10 µM",[5],97.1 ± 1.64%
same,"viability at 24 h, 30 µM",[5],95.1 ± 1.5%
same,"viability at 24 h, 100 µM",[5],90.5 ± 1.86%
same,"viability at 24 h, 300 µM",[5],78.1 ± 0.94%
same,"viability at 24 h, 1000 µM",[5],68.3 ± 2.92%

# Reference: publication PMC6514705, “QuinoxalineTacrine QT78, a Cholinesterase Inhibitor as a Potential Ligand for Alzheimer’s Disease Therapy” (Molecules, 2019)
